In patent US9345742B2, “Aminostatin derivatives for the treatment of arthrosis” (MERCK PATENT GMBH, priority 2011, dated 2016):
Numbered stars: 1 amine (or outer) side, 2 acyl side, 3 side chain; on linkers, the order of the positions; unused ones are H or OH. Square brackets hold non-standard residues; d marks the D form. Peptide text beside a SMILES is read from it. * marks the point of attachment. X1 = N[C@@H](CC(=O)[*:2])[C@H](Cc1ccccc1)N[*:1]; Isovaleryl = CC(C)CC(=O)*

Experiments:
[1] = molecular target: cathepsin D isolated from the human liver (Homo sapiens (Human), UniProt P07339); experiment: In-vitro fluorescence assay for identification of cathepsin D inhibitors; format: biochemical; details: cathepsin D 1.4 nM, pH 5.5; read-out: CatD assay IC50-
In short: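 Human liver cathepsin D (1.4 nM final) preincubated 10 min at room temperature with serially diluted compounds in 100 mM sodium acetate pH 5.5, 1.25% DMSO, 0.25% CHAPS. Reaction started with 5 μM MCA/Dnp-quenched peptide substrate. Fluorescence increase (ex 340/em 450 nm) over 60 min at room temperature compared with compound-free wells.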

[2] = system: rat knee joint; experiment: Carrageenan (CAR)-induced knee joint inflammation: swelling and thermal hyperalgesia (Hargreaves test); format: in vivo; details: intra-articular administration 30 minutes before CAR
Method: In order to induce an inflammation reaction, a carrageenan solution (CAR, 1%, 50 μl) was injected intra-articularly on one side into a rat knee joint. The uninjected side was used for control purposes. Six animals per group were used. The […] was determined by means of a micrometer screw (medial-lateral on the knee joint), and the thermal hyperalgesia was determined by means of a directed infrared light source by the Hargreaves method (Hargreaves et al., 1988) on the sole of the foot. Since the site of inflammation (knee joint) is different from the site of measurement (paw sole), use is made here of the term secondary thermal hyperalgesia, the mechanism of which is of importance for the discovery of effective analgesics.
Experimental description of thermal hyperalgesia (Hargreaves test): the experimental animal is placed in a plastic chamber on a quartz sheet. Before testing, the experimental animal is firstly given about 5-15 minutes time to familiarise itself with the environment. As soon as the experimental animal no longer moves so frequently after the familiarisation phase (end of the exploration phase), the infrared light source, whose focus is in the plane of the glass bottom, is positioned directly beneath the rear paw to be stimulated. An experiment run is then started by pressing the button: infrared light results in an increase in the skin temperature of the rear paw. The experiment is terminated either by the experimental animal raising the rear paw (as an expression of the pain threshold being reached) or by automatic switching-off of the infrared light source when a prespecified maximum temperature has been reached. Light reflected by the paw is recorded as long as the experimental animal sits still. Withdrawal of the paw interrupts this reflection, after which the infrared light source is switched off and the time from switching on to switching off is recorded. The instrument is calibrated in such a way that the infrared light source increases the skin temperature to about 45 degrees Celsius in 10 s (Hargreaves et al. 1988). […]

[3] = molecular target: recombinant human renin (Homo sapiens (Human), UniProt P00797); experiment: In-vitro fluorescence assay for identification of renin-inhibitory activity; format: biochemical; details: recombinant human renin 10 nM, pH 7.2; read-out: Renin selectivity IC50
In short: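 Recombinant human renin (10 nM) pre-incubated 15 min at RT with serially diluted compound in 50 mM Mops pH 7.2, 1.5% DMSO, 0.1% Igepal, 0.5% BSA; Edans/Dabcyl FRET peptide (5 µM final) added, 60 min at 37 °C; cleavage read as fluorescence increase (ex 340/em 495 nm) against no-compound wells.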

[4] = Stability in bovine synovial fluid; format: in vitro ADME; details: 1 μM, 48 h at 37° C.
Method: In order to check the stability of individual compounds, a pool of four different bovine synovial fluids is mixed. To this end, about 1 ml per SF is used. The mixture is prepared directly in a 5 ml glass vessel. The SFs are mixed thoroughly, but carefully. No air bubbles or foam should form. To this end, a vortex unit is used at the lowest speed. The compounds to be tested are tested in an initial concentration (unless required otherwise) of 1 μM. After addition of the substance, the batch is again mixed thoroughly and carefully. For visual monitoring, all SF batches are photographed, and the pictures are filed in the eLabBio file for the corresponding experiment. […] The batches are incubated in the incubator for 48 h at 37° C. and 7.5% CO2.
The sampling is carried out after the pre-agreed times (unless required otherwise, see below). 200 μl of the SF are removed from the mixture per time and transferred directly into a 0.5 ml “low-binding” Eppendorf vessel. “Low-binding” Eppendorf vessels are used in order to minimise interaction of the substances with the plastic of the vessels. 200 μl of acetonitrile have already been introduced into the Eppendorf vessel, so that a 1+1 mixture of the SF forms thereafter. This simplifies the subsequent analysis, but precipitation of protein may occur immediately after addition of the SF. This should be noted on the protocol. The 0 h sample is taken immediately after addition of the substance. This corresponds to the 100% value in the stability calculation. Ideally, the concentration employed should be retrieved here. The samples can be frozen at −20° C. • 0 h • 6 h • 24 h • 48 h
The negative control used is SF without substance. The positive control used is SF with 1 μM of substance. This corresponds to the 0 h value and thus 100% stability.
The concentrations measured (ng/ml) are plotted against the time in a graph (GraphPad Prism®). The percentage stability of the substance is determined here. The 100% value used is the initial value in the SF at time 0 h. The data are stored in eLabBio under the respective experiment number and reported in the MSR database (as percent stability after the corresponding incubation times).

[5] = system: bovine explants; experiment: Cartilage explant assay (pH-induced cartilage degradation, GAG liberation); format: cell-based; details: Bos taurus, 72 h, pH 5.5, 3 days
Text: In order to investigate the effect of potential cathepsin D inhibitors on cartilage degradation, a pH-induced model based on bovine explants is used. The pH of the medium in which the explants are cultivated is matched here to the pathophysiological pH of an arthrotic knee. This pH is pH 5.5. In this ex vivo model, potential cathepsin D inhibitors are subsequently investigated for their action with respect to stopping of the cartilage degradation process. If the cartilage is destroyed, glycosaminoglycans (GAGs) are released into the cell culture supernatant. The amount of GAGs liberated can be determined quantitatively with the aid of DMMB (dimethylmethylene blue hydrochloride). If sulfated GAGs are detected using dimethylmethylene blue hydrochloride, the decrease in the absorption at 633 nm is utilised. […] In order to determine the concentration, a calibration line is also recorded using chondroitin sulfate.
The bovine explants are firstly prepared. The induction of the cartilage degradation is carried out in 96-multiwell plates. One explant is cultivated per well. In each case, 200 μl of DMEM (incubation medium pH 5.5) without FBS+30 μg/ml of ascorbic acid are added. Thus negative control, explants (n=4) are incubated at pH 7.4 (without FBS). This control is not included in the calculation of the data, but instead ensures that the pH change has the desired effect on the liberation of GAG. At this point, the substances to be tested are added. No preincubation of the explants is carried out. The explants are cultivated with the corresponding substances for 3 days in the incubator at 37° C. and 7.5% CO2.
In order to investigate the effect of cathepsin D inhibitors on the liberation of GAG (glycosaminoglycan), the substances are employed in the desired concentration and cultivated for 3 days. The compounds to be tested are tested in a first experiment in a concentration of 1 μM and 1% of DMSO. Substances which have an effect of >50% on the liberation of GAG (this corresponds to <50% of the control in the Assay Explorer) are tested in the next experiment at 100 nM and 1% of DMSO. Substances which have an effect of >50% on the liberation of GAG under these conditions (this corresponds to <50% of the control in the Assay Explorer) are tested in a concentration/effect relationship. The compounds here are investigated in the following concentrations: 30 μM, 10 μM, 3 μM, 1 μM, […], 0.1 μM, 0.03 μM, 0.01 μM.
The positive control used is pepstatin A with a concentration of 0.01 μM. The assay window is defined by the control (pH 5.5), defined as 0% effect, and the control pH 5.5+0.01 μM pepstatin A, defined as 100% effect. After incubation for 3 days, the cell culture supernatants are collected and stored at −20° C. or measured directly. The amount of liberated GAG is measured photometrically.
The effect (1 value) of the respective substance in % based on the positive control (pH 5.5+0.01 μM pepstatin A) and the negative control (pH 5.5) is reported for concentrations of 1 μM and 100 nM. The value represents the average of 4 replicants. In the determination of a concentration/effect relationship, an IC50 value is reported to the database (Assay Explorer).
The cell culture supernatants (200 μl) are either measured directly or stored at −20° C. In order to ensure an accurate determination of the concentration (μg/ml of GAG in the supernatant) of GAG, the measurement values must be located in the linear region of the standard curve. In order to ensure this, various dilutions are routinely introduced (1/5, 1/10, 1/20, 1/40). The dilutions are prepared with medium and introduced automatically (Hamilton) into a 384-well plate (15 μl). 60 μl of DMMB solution are likewise added automatically (or using a multichannel pipette). A rapid colour reaction occurs, which is subsequently measured at 633 nm using a plate reader (for example Envision).

Chain of cathepsin D isolated from the human liver (P07339 65-161): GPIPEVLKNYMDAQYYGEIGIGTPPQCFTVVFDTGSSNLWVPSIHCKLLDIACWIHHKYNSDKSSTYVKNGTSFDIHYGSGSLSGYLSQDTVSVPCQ
Chain of cathepsin D isolated from the human liver (P07339 169-412): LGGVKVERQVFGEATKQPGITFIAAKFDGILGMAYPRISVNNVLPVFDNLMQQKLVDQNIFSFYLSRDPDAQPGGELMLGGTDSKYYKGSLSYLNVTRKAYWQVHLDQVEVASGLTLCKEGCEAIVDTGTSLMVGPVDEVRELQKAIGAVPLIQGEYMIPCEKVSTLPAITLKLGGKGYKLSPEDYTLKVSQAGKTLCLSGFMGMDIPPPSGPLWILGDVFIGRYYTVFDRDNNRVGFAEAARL
Chain of recombinant human renin (P00797 67-406): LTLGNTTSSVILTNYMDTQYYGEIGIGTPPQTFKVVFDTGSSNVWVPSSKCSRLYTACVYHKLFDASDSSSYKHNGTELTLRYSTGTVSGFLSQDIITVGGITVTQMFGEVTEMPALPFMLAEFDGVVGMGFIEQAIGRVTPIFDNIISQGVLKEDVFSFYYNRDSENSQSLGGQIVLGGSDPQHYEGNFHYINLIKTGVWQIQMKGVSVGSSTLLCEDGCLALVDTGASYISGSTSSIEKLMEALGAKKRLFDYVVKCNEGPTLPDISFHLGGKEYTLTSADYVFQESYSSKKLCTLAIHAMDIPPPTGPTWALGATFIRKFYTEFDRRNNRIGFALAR

Structure (SMILES) | IC50 [1] [nM] | CAR-induced swelling of joint [2] | Stability in synovial fluid [4] | further results
CC[C@H](C)[C@H](NC(=O)C[C@H](N)[C@H](Cc1ccccc1)NC(=O)[C@@H](NC(=O)[C@H](CC(C)C)NC(=O)CC(C)C)C(C)C)C(=O)N[C@H](C(=O)O)C(C)C [Compound 23, (S)-2-[(2S,3S)-2-((3S,4S)-3-Amino-4-{(S)-3-methyl-2-[(S)-4-methyl-2-(3-methylbutyrylamino)pentanoylamino]-butyrylamino}-5-phenylpentanoylamino)-3-methyl-pentanoylamino]-3-methylbutyric acid] (Isovaleryl-LV[X1]IV-OH) | 50 | no influence on inflammatory swelling |  | thermal hyperalgesia ([2]; Hargreaves test): exerts an anti-hyperalgesic action
CC[C@H](C)[C@H](NC(=O)C[C@H](N)[C@H](Cc1ccccc1)NC(=O)[C@@H](NC(=O)[C@H](CC(C)C)NC(=O)CC(C)C)C(C)C)C(=O)NCCc1ccccc1 [Compound 24, N-((1S,2S)-2-Methyl-1-phenethyl-carbamoylbutyl)-(S)-3-amino-4-{(S)-(S)-3-methyl-2-[(S)-4-methyl-2-(3-methylbutyryl-amino)pentanoylamino]butyrylamino}-5-phenylpentanamide] |  |  | stable | IC50 [3]: > 30000 nM
CC[C@H](C)[C@H](NC(=O)C[C@H](N)[C@H](Cc1ccccc1)NC(=O)[C@@H](NC(=O)[C@H](CC(C)C)NC(=O)CC(C)C)C(C)C)C(=O)Nc1ccn(C)n1 [Compound 27, N-[(1S,2S)-2-Methyl-1-(1-methyl-1H-pyrazol-3-ylcarbamoyl)butyl]-(S)-3-amino-4-{(S)-(S)-3-methyl-2-[(S)-4-methyl-2-(3-methylbutyrylamino)pentanoylamino]-butyrylamino}-5-phenylpentanamide] | 46 |  | stable | 
CC[C@H](C)[C@H](NC(=O)C[C@H](N)[C@H](Cc1ccccc1)NC(=O)[C@@H](NC(=O)[C@H](Cc1ccccc1)NC(=O)CC(C)C)C(C)C)C(=O)N[C@H](C(=O)O)C(C)C [Compound 33, (S)-2-[(2S,3S)-2-((3S,4S)-3-Amino-4-{(S)-3-methyl-2-[(S)-2-(3-methylbutyrylamino)-3-phenylpropionylamino]-1-oxobutyl-amino}-5-phenylpentanoylamino)-3-methylpentanoylamino]-3-methyl-butyric acid] (Isovaleryl-FV[X1]IV-OH) |  |  | stable | IC50 [5]: 2.64 nM
C[C@]12C=CC(=O)C=C1CC[C@H]1[C@@H]3C[C@@H](O)[C@](O)(C(=O)CO)[C@@]3(C)C[C@H](O)[C@@]12F [TAC, Triamcinolone, reference compound] |  | capable of reducing the CAR-induced swelling |  | 
